Results on one substance are retold here after patent US20240368605A1, “USE OF SPLICE SWITCHING OLIGONUCLEOTIDES FOR EXON SKIPPING-MEDIATED KNOCKDOWN OF PIM2” (INSTITUT NATIONAL DE LA SANTÉ ET DE LA RECHERCHE MÉDICALE, priority 2021, published 2024).

In one data set the test system is PIM2. The data set is described as follows: PIM2 expression in in vitro differentiated activated B cells / plasmablasts after SSO treatment (mRNA, PCR, western blot, immunofluorescence). The format is cell-based, human. Here is the method:
FIG. 1. Specific PIM2 inhibition affects the generation of plasmablasts • A. Diagram explaining SSO-PIM2 action. It binds to the second exon of the gene PIM2 leading in a skip of this exon during transcription and finally results to a frame shift and created an early stop-codon during translation. The protein is so a non-functional truncated protein. • B. Activated B cells were treated at D4 with an increasing dose of SSO-PIM2 and SSO-CTL (control condition) and recovered 48 hours later (at D6). PIM2 mRNA residual expression compared to the control condition adjust at 100% (mean±SD, n=3) and agarose gel of PIM2 PCR, showing exon skipping. • C. At D4, activated B cells were treated with SSO-PIM2 and SSO-CTL (control condition) at 2 μM. CD23+ aBC and PB were sorted at D6. PIM2 mRNA relative expression (mean±SD, n=4) (left) and PIM2 protein expression by western blot (middle) and immunofluorescence (right) after PIM2 inhibition. • D-E. Decrease of PB generation after PIM2 inhibition. Cells were treated with SSO-PIM2 at 2 μM (D) or increase dose of the PIM inhibitor AZD1208 (PIMi as indicated, in μM) (E) and their control condition (SSO-CTL and DMSO respectively). The untreated condition is referred as “NT” (=no treatment). Left: Absolute number of PB obtained at D6 after PIM2 inhibition. Data are representative with bars at mean±SD, n=6. Right: Proportion of PB evaluated at D6 by flow cytometry after treatment with SSO-PIM2 at 2 μM. Data are representative of six independent experiments. • F. Transcription factors (IRF4, PRDM1, XBPIS, BACH2, BCL6, SPIB, IRF8 and PAX5) mRNA relative expression after specific PIM2 inhibition. Data are representative with bars at mean±SD, n=4.
To identify genes whose transcription was acutely regulated during the final commitment step we developed our previously described in vitro differentiation model system on human naive B cells (NBCs) giving at day-6 (D6) four cell populations that were explored transcriptionally (data not shown) (Caron et al., 2015; Le Gallou et al., 2012; Pignarre et al., 2021). […]

The next data set deals with p21^Cip1/WAF1. The experiment in a line: CDKN1A gene and p21^Cip1/WAF1 protein expression in PBs. The format is cell-based, human. The text has this: Like p27^Kip1, p21^Cip1/WAF1 is a tight-binding inhibitor of CDKs and inhibits cell cycle entry into S phase (Elledge et al., 1996). Plasmablast commitment leads to a significant increase of the CDKN1A gene, which encodes p21^Cip1/WAF1, and this independently to the expression of TP53 (data not shown). […] We then wondered whether PIM2 could modify p21^Cip1/WAF1 expression. […] To address this scenario, we developed endogenous protein immunoprecipitation (IP) and found in generated PBs and XG21 cell line as well that PIM2, p21^Cip1/WAF1 and HSP90β form a cytoplasmic multiprotein complex (data not shown).

With “5′-CCTCATGACGGATACCTGGAGTC-3′ (all phosphorodiamidate morpholino (PMO)) [SSO-PIM2]”, in the data set on PIM2 (2 μM), the PIM2 knockdown result is reported as “near-knockout condition for PIM2” and the “duration of PIM2 near-knockout” value is given as “up to 96 h”. Moreover, in the data set on PIM2 (D6 collected PBs, increasing dose added at D4, 48 hours), the “inhibition of PIM2 expression” value was “dose-dependent inhibition of PIM2 expression”. For the same substance, the “CDKN1A gene upregulation in PBs” value in the data set on p21^Cip1/WAF1 was “did not interfere with CDKN1A gene upregulation”. For the same substance, in the data set on p21^Cip1/WAF1 (PBs), the “p21^Cip1/WAF1 protein expression and localization” value is recorded as “decreased dramatically its cytoplasmic expression without nuclear relocalization”.
